Like-named read-outs stand apart in the source and are kept apart here.
Key:
Assay type in all cases: in vivo
[1] = tested on: Beet Armyworm (Spodoptera exigua, LAPHEG); assay: Bioassays on Beet Armyworm (BAW), 128-well diet tray assay; conditions: Spodoptera exigua
Procedure, shortened: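 Percent larval mortality, averaged across eight wells, scored after five to seven days at 25° C. under 14:10 light-dark. Each well held one to five second instars feeding on diet dosed at 50 μg/cm^2 with compound from 90:10 acetone-water, solvent dried off.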

[2] = tested on: Cabbage Looper (Trichoplusia ni, TRIPNI); assay: Bioassays on Cabbage Looper (CL), 128-well diet tray assay; conditions: Trichoplusia ni
Procedure, shortened: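 Percent mortality, averaged across eight replicate wells, after second-instar larvae (1–5 per well) fed for five to seven days on diet dosed at 50 μg/cm^2. Compound was applied in acetone-water 90:10 and dried; trays kept vented at 25° C under 14:10 photoperiod.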

[3] = tested on: Yellow Fever Mosquito (Aedes aegypti, AEDSAE); conditions: for YFM rating: Table ABC / ABC-DP rating
Procedure, shortened: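 Compounds from DMSO master plates (4000 ppm stock) diluted in 90:10 water/acetone, then dispensed into six replicate plates and infested with ~1-day-old Aedes aegypti larvae in liver-powder water. Held covered at room temperature for 3 days; each well scored for larval mortality and graded on a rating scale.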

[4] = Beet Armyworm, rating class, read-out: BAW
[5] = Cabbage Looper, rating class, read-out: CL
[6] = Yellow Fever Mosquito, rating class
[7] = Table ABC: Biological Results, species BAW, read-out: BAW
[8] = Table ABC: Biological Results, species CL, read-out: CL
[9] = Table ABC: Biological Results, species YFM
[10] = Beet Armyworm, Table ABC / ABC-DP rating, read-out: BAW rating
[11] = Cabbage Looper, Table ABC / ABC-DP rating, read-out: CL rating

Q: What does the source list for `O=C(Nc1cc(NC(=O)C(F)(F)F)c(F)cc1F)c1cc(NC(=O)[C@H]2[C@H](c3cc(Cl)c(Cl)c(Cl)c3)C2(Cl)Cl)ccc1F` [F1551, 5-((1R,3R)-2,2-Dichloro-3-(3,4,5-trichlorophenyl)cyclopropane-1-carboxamido)-N-(2,4-difluoro-5-(2,2,2-trifluoroacetamido)phenyl)-2-fluorobenzamide]?
A: pest or weed control at 50 µg/cm2 [1, 4]: 50 to 100%; pest or weed control at 50 µg/cm2 [2, 5]: 50 to 100%; YFM [3, 6]: A (80–100)

Q: How did the pest or weed control at 50 µg/cm2 [1, 7] turn out when `C=Cc1cc(NC(=O)c2cc(NC(=O)[C@H]3[C@H](c4cc(Cl)cc(Cl)c4)C3(Cl)Cl)ccc2Cl)c(F)cc1F` (relative stereo) [F1315, trans-2-Chloro-5-(2,2-dichloro-3-(3,5-dichlorophenyl)cyclopropane-1-carboxamido)-N-(2,4-difluoro-5-vinylphenyl)benzamide] was run?
A: 50 to 100%

Q: What about the pest or weed control at 50 µg/cm2 [2, 8] of the same compound?
A: 50 to 100%

Q: And the YFM [3, 9]?
A: A (80–100)

Q: `Nc1c(F)ccc(NC(=O)c2cc(NC(=O)[C@H]3[C@@H](c4cc(Br)cc(S(F)(F)(F)(F)F)c4)C3(Cl)Cl)ccc2Cl)c1F` (relative stereo) [F1043, cis-N-(3-Amino-2,4-difluorophenyl)-5-(3-(3-bromo-5-(pentafluoro-λ^6-sulfanyl)phenyl)-2,2-dichlorocyclopropane-1-carboxamido)-2-chlorobenzamide] was tested. Which pest or weed control at 50 µg/cm2 [1, 7] did it give?
A: 50 to 100%

Q: What about the pest or weed control at 50 µg/cm2 [2, 8] of the same compound?
A: 50 to 100%

Q: What about the YFM [3, 9] of the same compound?
A: A (80–100)

Q: What does the source list for `O=C(COC(F)(F)F)Nc1c(F)ccc(NC(=O)c2cc(NC(=O)[C@H]3[C@H](c4ccc(F)c(Br)c4)C3(Cl)Cl)ccc2Cl)c1F` [F1780, 5-((1R,3R)-3-(3-Bromo-4-fluorophenyl)-2,2-dichlorocyclopropane-1-carboxamido)-2-chloro-N-(2,4-difluoro-3-(2-(trifluoromethoxy)acetamido)phenyl)benzamide]?
A: pest or weed control at 50 µg/cm2 [1, 10]: 50 to 100%; pest or weed control at 50 µg/cm2 [2, 11]: 50 to 100%; YFM rating ([3]; Yellow Fever Mosquito): A (80–100)

Q: How did the pest or weed control at 50 µg/cm2 [1, 10] turn out when `O=C(NCCCNC(=O)C(F)(F)F)c1cc(NC(=O)[C@H]2[C@H](c3cc(Cl)cc(Cl)c3)C2(Cl)Cl)ccc1Cl` (relative stereo) [F2094, trans-2-Chloro-5-(2,2-dichloro-3-(3,5-dichlorophenyl)cyclopropane-1-carboxamido)-N-(3-(2,2,2-trifluoroacetamido)propyl)benzamide] was run?
A: 50 to 100%

Q: And the pest or weed control at 50 µg/cm2 [2, 11]?
A: 50 to 100%

Q: What about the YFM rating ([3]; Yellow Fever Mosquito) of the same compound?
A: B (More than 0 – Less than 80)

Q: For `Nc1c(F)ccc(NC(=O)c2cc(NC(=O)[C@H]3[C@H](c4cccc(Br)c4)C3(Cl)Cl)ccc2Cl)c1F` (relative stereo) [F1594, trans-N-(3-Amino-2,4-difluorophenyl)-5-(3-(3-bromophenyl)-2,2-dichlorocyclopropane-1-carboxamido)-2-chlorobenzamide], which pest or weed control at 50 µg/cm2 [1, 4] is on record?
A: 50 to 100%

Q: And the pest or weed control at 50 µg/cm2 [2, 5]?
A: 50 to 100%

Q: And the YFM [3, 6]?
A: A (80–100)

Q: How did the pest or weed control at 50 µg/cm2 [1, 4] turn out when `O=C1CCC(C(=O)Nc2c(F)ccc(NC(=O)c3cc(NC(=O)[C@H]4[C@H](c5ccc(F)c(C(F)(F)F)c5)C4(Cl)Cl)ccc3Cl)c2F)C1` (stereo partly drawn) [F1488, 2-Chloro-5-((1R,3R)-2,2-dichloro-3-(4-fluoro-3-(trifluoromethyl)phenyl)cyclopropane-1-carboxamido)-N-(2,4-difluoro-3-(3-oxocyclopentane-1-carboxamido)phenyl)benzamide] was run?
A: 50 to 100%

Q: And the pest or weed control at 50 µg/cm2 [2, 5]?
A: 50 to 100%

Q: And the YFM [3, 6]?
A: A (80–100)

Q: Which pest or weed control at 50 µg/cm2 [1, 10] does the source give for `O=C(NCCCCl)c1cc(NC(=O)[C@H]2[C@H](c3ccc(F)c(Cl)c3)C2(Cl)Cl)cc(F)c1Cl` (relative stereo) [F2036, trans-2-Chloro-N-(3-chloropropyl)-5-(2,2-dichloro-3-(3-chloro-4-fluorophenyl)cyclopropane-1-carboxamido)-3-fluorobenzamide] here?
A: 50 to 100%

Q: And the pest or weed control at 50 µg/cm2 [2, 11]?
A: 50 to 100%

Q: And the YFM rating ([3]; Yellow Fever Mosquito)?
A: A (80–100)

Q: What does the source list for `O=C(NCCCCNC(=O)C(F)(F)F)c1cc(NC(=O)[C@H]2[C@H](c3cc(Cl)cc(Cl)c3)C2(Cl)Cl)ccc1Cl` (relative stereo) [F2095, trans-2-Chloro-5-(2,2-dichloro-3-(3,5-dichlorophenyl)cyclopropane-1-carboxamido)-N-(4-(2,2,2-trifluoroacetamido)butyl)benzamide]?
A: pest or weed control at 50 µg/cm2 [1, 10]: 50 to 100%; pest or weed control at 50 µg/cm2 [2, 11]: 50 to 100%; YFM rating ([3]; Yellow Fever Mosquito): A (80–100)

Q: For `O=C(Nc1ccc(F)c(NC(=O)C(F)F)c1F)c1cc(NC(=O)[C@H]2[C@H](c3ccc(F)c(C(F)(F)F)c3)C2(Cl)Cl)c(F)cc1Cl` [F1729, 2-Chloro-5-((1R,3R)-2,2-dichloro-3-(4-fluoro-3-(trifluoromethyl)phenyl)cyclopropane-1-carboxamido)-N-(3-(2,2-difluoroacetamido)-2,4-difluorophenyl)-4-fluorobenzamide], which pest or weed control at 50 µg/cm2 [1, 4] is on record?
A: 50 to 100%

Q: And the pest or weed control at 50 µg/cm2 [2, 5]?
A: 50 to 100%

Q: And the YFM [3, 6]?
A: A (80–100)

Q: Which pest or weed control at 50 µg/cm2 [1, 7] does the source give for `CC(C)(C)OC(=O)Nc1c(F)ccc(NC(=O)c2cc(NC(=O)[C@H]3[C@H](c4cc(Cl)cc(C(F)(F)F)c4)C3(Cl)Cl)ccc2Cl)c1F` (relative stereo) [F1119, trans-tert-Butyl-(3-(2-chloro-5-(2,2-dichloro-3-(3-chloro-5-(trifluoromethyl)phenyl)cyclopropane-1-carboxamido)benzamido)-2,6-difluorophenyl)carbamate] here?
A: 50 to 100%

Q: What about the pest or weed control at 50 µg/cm2 [2, 8] of the same compound?
A: 50 to 100%

Q: What about the YFM [3, 9] of the same compound?
A: A (80–100)

Q: For `O=C(NNc1cc(F)ccc1F)c1cc(NC(=O)[C@H]2[C@H](c3cc(Cl)cc(Cl)c3)C2(Cl)Cl)ccc1Cl` (relative stereo) [F2558, trans-2,2-Dichloro-N-(4-chloro-3-(2-(2,5-difluorophenyl)hydrazine-1-carbonyl)phenyl)-3-(3,5-dichlorophenyl)cyclopropane-1-carboxamide], which pest or weed control at 50 µg/cm2 [1, 10] is on record?
A: 50 to 100%

Q: And the pest or weed control at 50 µg/cm2 [2, 11]?
A: 50 to 100%

Q: What about the YFM rating ([3]; Yellow Fever Mosquito) of the same compound?
A: A (80–100)

Q: What does the source list for `C=C(F)c1cc(NC(=O)c2cc(NC(=O)[C@H]3[C@H](c4cc(Cl)cc(Cl)c4)C3(Cl)Cl)ccc2Cl)ccc1F` (relative stereo) [F1318, trans-2-Chloro-5-(2,2-dichloro-3-(3,5-dichlorophenyl)cyclopropane-1-carboxamido)-N-(4-fluoro-3-(1-fluorovinyl)phenyl)benzamide]?
A: pest or weed control at 50 µg/cm2 [1, 7]: 50 to 100%; pest or weed control at 50 µg/cm2 [2, 8]: 50 to 100%; YFM [3, 9]: A (80–100)

Q: Which results are given for `O=C(Nc1ccc(F)cc1F)c1cc(NC(=O)[C@H]2[C@@H](c3cc(F)c(F)c(Br)c3)C2(Cl)Cl)ccc1Cl` (relative stereo) [F1012, cis-5-(3-(3-Bromo-4,5-difluorophenyl)-2,2-dichlorocyclopropane-1-carboxamido)-2-chloro-N-(2,4-difluorophenyl)benzamide]?
A: pest or weed control at 50 µg/cm2 [1, 7]: 50 to 100%; pest or weed control at 50 µg/cm2 [2, 8]: 50 to 100%; YFM [3, 9]: A (80–100)

Q: Which mortality at 50 µg/cm2 ([1]; 168 h, second instar larvae, 50 μg/cm^2 of test molecule on artificial diet, 25° C., five to seven days, average of eight wells, read-out: BAW % Control (or Mortality) rating) does the source give for `O=C(Nc1cc(F)c(F)c(Br)c1)c1cc(NC(=O)[C@H]2[C@H](c3cc(Cl)cc(Cl)c3)C2(Cl)Cl)ccc1Cl` (relative stereo) [DP11, trans-N-(3-Bromo-4,5-difluorophenyl)-2-chloro-5-(2,2-dichloro-3-(3,5-dichlorophenyl)cyclopropane-1-carboxamido)benzamide] here?
A: 50 to 100%

Q: What about the pest or weed control at 50 µg/cm2 [1, 10] of the same compound?
A: 50 to 100%

Q: What about the mortality at 50 µg/cm2 ([2]; 168 h, second instar larvae, 50 μg/cm^2 of test molecule on artificial diet, 25° C., five to seven days, average of eight wells, read-out: CL % Control (or Mortality) rating) of the same compound?
A: 50 to 100%

Q: And the pest or weed control at 50 µg/cm2 [2, 11]?
A: 50 to 100%

Q: And the YFM rating ([3]; Yellow Fever Mosquito)?
A: A (80–100)

Q: And the “YFM % Control (or Mortality) rating” value ([3]; about 1 day-old larvae, 4000 ppm master solution diluted with 90:10 water/acetone, 15 μL per well plus 220 μL larval mixture, 3 days, mortality)?
A: A (80–100)

Q: For `CC(CC(F)(F)F)C(=O)Nc1c(F)ccc(NC(=O)c2cc(NC(=O)[C@H]3[C@H](c4ccc(F)c(Cl)c4)C3(Cl)Cl)ccc2Cl)c1F` (stereo partly drawn) [F1866, 2-Chloro-5-((1R,3R)-2,2-dichloro-3-(3-chloro-4-fluorophenyl)cyclopropane-1-carboxamido)-N-(2,4-difluoro-3-(4,4,4-trifluoro-2-methylbutanamido)phenyl) benzamide], which pest or weed control at 50 µg/cm2 [1, 10] is on record?
A: 50 to 100%

Q: What about the pest or weed control at 50 µg/cm2 [2, 11] of the same compound?
A: 50 to 100%

Q: And the YFM rating ([3]; Yellow Fever Mosquito)?
A: A (80–100)

Q: For `C=CCC(=O)Nc1c(F)ccc(NC(=O)c2cc(NC(=O)[C@H]3[C@H](c4cc(F)cc(C(F)(F)F)c4)C3(Cl)Cl)ccc2Cl)c1F` [F1879, N-(3-(But-3-enamido)-2,4-difluorophenyl)-2-chloro-5-((1R,3R)-2,2-dichloro-3-(3-fluoro-5-(trifluoromethyl)phenyl)cyclopropane-1-carboxamido)benzamide], which pest or weed control at 50 µg/cm2 [1, 10] is on record?
A: 50 to 100%

Q: What about the pest or weed control at 50 µg/cm2 [2, 11] of the same compound?
A: 50 to 100%

Q: What about the YFM rating ([3]; Yellow Fever Mosquito) of the same compound?
A: A (80–100)

Q: With `CCC(F)(F)CNC(=O)c1cc(NC(=O)[C@H]2[C@H](c3cc(Cl)cc(Cl)c3)C2(Cl)Cl)cc(F)c1Cl` (relative stereo) [F2088, trans-2-Chloro-5-(2,2-dichloro-3-(3,5-dichlorophenyl)cyclopropane-1-carboxamido)-N-(2,2-difluorobutyl)-3-fluorobenzamide] as the compound, how does the pest or weed control at 50 µg/cm2 [1, 10] read?
A: 50 to 100%

Q: What about the pest or weed control at 50 µg/cm2 [2, 11] of the same compound?
A: 50 to 100%

Q: And the YFM rating ([3]; Yellow Fever Mosquito)?
A: B (More than 0 – Less than 80)
